Experimental findings from patent US20240049719A1, “ANTIMICROBIAL COATING” (HECOSOL GMBH, priority 2017, published 2024) are described below.

One series concerns Staphylococcus aureus. The experiment in a line: JIS test (JIS Z 2801 / ISO 22196) against Staphylococcus aureus. It counts as cell-based. The settings on record: in-vitro JIS test, 1600 lux. The method, then:
The internationally recognized JIS test (Japanese Industrial Standard Test, JIS Z 2801), which corresponds to ISO standard 22196 in Europe, is used for objective assessment of the germ reducing effect of surfaces.
Thereby, Petri dishes coated with the test substance are first wetted with a germ suspension (e.g. E. coli or Staphylococcus aureus), covered with a foil and then incubated at 35° C. and 95% humidity.
Here, the experiments can be performed in the dark or under defined lighting conditions (e.g. by means of LED light at 1600 lux).
At the end of the incubation, the number of surviving germs is determined and a reduction factor RL is calculated as described above.
The anti-microbial effectiveness of this coating 10′ against the Staphylococcus aureus germ is shown in FIG. 14a after an incubation period of 24 hours under defined light conditions of about 1600 lux with RL=4.1.

The test system of the next series is E. coli. The experiment in a line: JIS test (JIS Z 2801 / ISO 22196) on coated Petri dishes, germ reduction of E. coli. The series is classed as cell-based. The source says:
The reduction factor RL is used to quantify the anti-microbial effectiveness. This reduction factor RL can be represented by the following mathematical relationship: RL=log (A/B). Here, A corresponds to an average value of so-called colony forming units (CFU) per ml on a reference surface without anti-microbial coating. Consequently, B corresponds to an average value of colony forming units (CFU) per ml on a reference surface with an anti-microbial coating according to the present invention. The internationally recognized JIS test (Japanese Industrial Standard Test, JIS Z 2801), which corresponds to ISO standard 22196 in Europe, is used for objective assessment of the germ reducing effect of surfaces. Thereby, Petri dishes coated with the test substance are first wetted with a germ suspension (e.g. […] Here, the experiments can be performed in the dark or under defined lighting conditions (e.g. by means of LED light at 1600 lux). At the end of the incubation, the number of surviving germs is determined and a reduction factor RL is calculated as described above.

Series [1] has as its system Artemia nauplii (brine shrimp). The settings on record: in vivo. The source says: (§1) Therefore, the toxicological behaviour of this coating towards daphnia (water flea) as well as Artemia nauplii (brine shrimp) was investigated. […] As a result, these animals show the same vitality in the coated plates as in the uncoated ones.
In the next series the test system is daphnia (water flea). The note with it: in vivo.
From the text: as §1

Series [2] is classed as physicochemical. The source says: Furthermore, it is shown that the structure of the deposited TiO2*AgNO3 matrix is stable against 1000-times wiping with an anti-septic cloth (ethanol, benzalkonium chloride).

With `[O]=[Mo](=[O])([O-])[O-].[Zn+2]` [ZnMoO4, zinc molybdate], the “effectiveness (in words)” value with Staphylococcus aureus is “germ reducing effectiveness”. Further, the “reduction factor RL” value in the series on E. coli (5 min incubation, in the dark) worked out at 3.2.

As for `[O]=[W](=[O])=[O]` [tungsten oxide], the “anti-microbial effectiveness (class in words)” value in the series with E. coli (within/after 24 h, 1600 lux) is given as “strong”.

For TiO2*AgNO3, the “vitality of animals in coated vs uncoated plates” value (in series [1]; in the series with daphnia (water flea)) was “same vitality” each time. Besides, the “stability of deposited matrix structure against wiping” value in series [2] is recorded as “stable”. As for tungsten molybdate, the “anti-microbial effectiveness (class in words)” value is reported as “no antimicrobial effectiveness” with E. coli (after 1 h, 1600 lux) and “no antimicrobial effectiveness” in the series on E. coli (within/after 24 h, 1600 lux). For `[Na+].[Na+].[O]=[Mo](=[O])([O-])[O-]` [Na2MoO4, sodium molybdate], the “anti-microbial effectiveness (class in words)” value in the series on E. coli (within/after 24 h, 1600 lux) is “no anti-microbial effect”. In the case of `O=[N+]([O-])[O-].[Ag+]` [AgNO3, silver nitrate], the “reduction factor RL” value in the series on E. coli (5 min incubation, in the dark) is 4.3. Besides, the “reproducible RL values (range over repeated JIS tests)” value with E. coli (JIS test) is 4.0-4.3.

In the case of ammonium heptamolybdate [(NH4)6Mo7O24], in the series on E. coli (1 h incubation, 1600 lux), the “reduction factor RL (anti-microbial effectiveness)” value is on record as 1.4. Also, in the series with E. coli (24 h incubation, 1600 lux), the “reduction factor RL” value came out at 4.3. In addition, the “anti-microbial effectiveness (class in words)” value in the series with E. coli (after 1 h, 1600 lux) is “significant”.

`[Ag+].[Ag+].[O]=[Mo](=[O])([O-])[O-]` [Ag2MoO4, silver molybdate]: the “anti-microbial effectiveness (class in words)” value in the series on E. coli (within/after 24 h, 1600 lux) is “strongly germ-reducing”. `[O]=[W](=[O])([O-])[O-].[Zn+2]` [ZnWO4, zinc tungstate]: the “anti-microbial effectiveness (class in words)” value in the series on E. coli (within/after 24 h, 1600 lux) is “strong”.
